US20250170248A1, “SMARCA DEGRADERS AND USES THEREOF” (Kymera Therapeutics, Inc., priority 2021, published 2025)

Tests used:
Format in all cases: cell-based
SMARCA2 [1] = target: T1, SMARCA2 (Homo sapiens, UniProt P51531); test: MSD SMARCA2 degradation in A549 cell line; settings: for SMARCA2 MSD A549 degradation 24 h: Average Dmax % / DC50: A549 cells; for DC50 / Dmax: 24 h; for DC50: read-out: SMARCA2 MSD A549 degradation 24 h: Average external-Abs DC50; for Dmax: A549, A549 cells
In short: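 SMARCA2 protein remaining after 24 h exposure of A549 cells (top concentration 1000 nM, 3-fold dilutions) was measured by MSD electrochemiluminescence immunoassay of cell lysates. Results are given as binned DC50 and maximal degradation (Dmax) codes.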

SMARCA4 = target: T2, SMARCA4 (Homo sapiens, UniProt P51532); test: SMARCA4 Western blot degradation in MV4-11 cells; settings: for SMARCA4 MSD MV411 degradation 24 h: average Dmax % / DC50: MV4-11 cells; for DC50 / Dmax: 24 h; for DC50: read-out: SMARCA4 MSD MV411 degradation 24 h: Mean external-Abs DC50; for Dmax: MV4-11, MV4-11 cells, read-out: SMARCA4 MSD MV411 degradation 24 h: average Dmax %
T2 construct: SMARCA2/SMARCA4 protein degradation selectivity in MV4-11 cells; endogenous in cells; host or cells: MV4-11
In short: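 Protein levels quantified by LI-COR Western blot (beta-actin loading control) in RIPA lysates of MV4-11 cells after 24 h compound exposure. Degradation reported as DC50, Dmax % at 24 h and SMARCA2 vs SMARCA4 selectivity, each binned into letter codes.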

SMARCA2 [2] = target: T1, SMARCA2; test: SMARCA2 Western blot degradation in MV4-11 cells; parameters: SMARCA2/SMARCA4 protein degradation selectivity in MV4-11 cells; endogenous in cells; host or cells: MV4-11; settings: for SMARCA2 MSD MV411 degradation 24 h: average Dmax % / DC50 / Selectivity in MV411: MV4-11 cells; for SMARCA2 MSD MV411 degradation 24 h: average Dmax % / DC50 / Dmax: 24 h; for DC50: read-out: SMARCA2 MSD MV411 degradation 24 h: Mean external-Abs DC50; for Selectivity in MV411: SMARCA2/4 selectivity; for Dmax: MV4-11, MV4-11 cells, read-out: SMARCA2 MSD MV411 degradation 24 h: average Dmax %

T1 sequence (P51531 whole entry): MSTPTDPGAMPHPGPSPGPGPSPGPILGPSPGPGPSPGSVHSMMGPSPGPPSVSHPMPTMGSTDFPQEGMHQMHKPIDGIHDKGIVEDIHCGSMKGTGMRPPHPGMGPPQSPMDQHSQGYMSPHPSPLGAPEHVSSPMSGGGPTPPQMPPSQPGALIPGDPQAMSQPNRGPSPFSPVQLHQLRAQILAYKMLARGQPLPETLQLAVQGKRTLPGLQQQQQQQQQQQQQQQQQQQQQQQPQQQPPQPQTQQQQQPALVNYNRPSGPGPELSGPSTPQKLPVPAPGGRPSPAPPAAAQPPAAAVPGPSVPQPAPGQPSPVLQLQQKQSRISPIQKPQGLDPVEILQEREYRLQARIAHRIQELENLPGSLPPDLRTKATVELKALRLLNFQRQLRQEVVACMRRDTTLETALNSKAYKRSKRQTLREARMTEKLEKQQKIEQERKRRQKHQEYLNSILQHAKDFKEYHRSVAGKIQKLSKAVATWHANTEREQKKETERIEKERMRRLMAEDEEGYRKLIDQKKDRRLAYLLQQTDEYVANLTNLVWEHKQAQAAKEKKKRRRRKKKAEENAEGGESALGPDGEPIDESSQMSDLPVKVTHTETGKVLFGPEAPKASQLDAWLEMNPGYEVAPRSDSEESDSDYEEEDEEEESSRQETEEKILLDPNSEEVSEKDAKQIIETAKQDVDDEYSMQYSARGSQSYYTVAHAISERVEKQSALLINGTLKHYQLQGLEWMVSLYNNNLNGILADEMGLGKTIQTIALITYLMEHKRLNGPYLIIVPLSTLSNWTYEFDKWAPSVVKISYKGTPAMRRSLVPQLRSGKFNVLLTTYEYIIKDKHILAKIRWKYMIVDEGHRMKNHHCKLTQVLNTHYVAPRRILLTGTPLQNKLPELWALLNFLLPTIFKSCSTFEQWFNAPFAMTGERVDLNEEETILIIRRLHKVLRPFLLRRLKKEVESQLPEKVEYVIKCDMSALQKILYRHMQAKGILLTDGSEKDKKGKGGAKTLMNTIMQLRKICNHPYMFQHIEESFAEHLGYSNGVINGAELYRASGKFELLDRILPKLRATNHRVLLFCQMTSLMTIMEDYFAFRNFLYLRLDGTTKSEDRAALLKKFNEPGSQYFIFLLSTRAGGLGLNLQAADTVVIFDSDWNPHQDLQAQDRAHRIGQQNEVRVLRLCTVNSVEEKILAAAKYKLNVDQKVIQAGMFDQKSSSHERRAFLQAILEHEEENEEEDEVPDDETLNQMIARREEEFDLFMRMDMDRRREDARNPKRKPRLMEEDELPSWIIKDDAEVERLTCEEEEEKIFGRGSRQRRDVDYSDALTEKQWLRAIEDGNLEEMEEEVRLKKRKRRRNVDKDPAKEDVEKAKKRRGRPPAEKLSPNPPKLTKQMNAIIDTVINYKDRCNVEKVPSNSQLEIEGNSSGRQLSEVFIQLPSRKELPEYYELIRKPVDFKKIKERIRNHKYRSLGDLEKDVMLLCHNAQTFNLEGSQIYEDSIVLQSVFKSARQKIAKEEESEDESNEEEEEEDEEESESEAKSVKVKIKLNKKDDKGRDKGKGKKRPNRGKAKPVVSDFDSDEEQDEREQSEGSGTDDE
T2 sequence (P51532 whole entry): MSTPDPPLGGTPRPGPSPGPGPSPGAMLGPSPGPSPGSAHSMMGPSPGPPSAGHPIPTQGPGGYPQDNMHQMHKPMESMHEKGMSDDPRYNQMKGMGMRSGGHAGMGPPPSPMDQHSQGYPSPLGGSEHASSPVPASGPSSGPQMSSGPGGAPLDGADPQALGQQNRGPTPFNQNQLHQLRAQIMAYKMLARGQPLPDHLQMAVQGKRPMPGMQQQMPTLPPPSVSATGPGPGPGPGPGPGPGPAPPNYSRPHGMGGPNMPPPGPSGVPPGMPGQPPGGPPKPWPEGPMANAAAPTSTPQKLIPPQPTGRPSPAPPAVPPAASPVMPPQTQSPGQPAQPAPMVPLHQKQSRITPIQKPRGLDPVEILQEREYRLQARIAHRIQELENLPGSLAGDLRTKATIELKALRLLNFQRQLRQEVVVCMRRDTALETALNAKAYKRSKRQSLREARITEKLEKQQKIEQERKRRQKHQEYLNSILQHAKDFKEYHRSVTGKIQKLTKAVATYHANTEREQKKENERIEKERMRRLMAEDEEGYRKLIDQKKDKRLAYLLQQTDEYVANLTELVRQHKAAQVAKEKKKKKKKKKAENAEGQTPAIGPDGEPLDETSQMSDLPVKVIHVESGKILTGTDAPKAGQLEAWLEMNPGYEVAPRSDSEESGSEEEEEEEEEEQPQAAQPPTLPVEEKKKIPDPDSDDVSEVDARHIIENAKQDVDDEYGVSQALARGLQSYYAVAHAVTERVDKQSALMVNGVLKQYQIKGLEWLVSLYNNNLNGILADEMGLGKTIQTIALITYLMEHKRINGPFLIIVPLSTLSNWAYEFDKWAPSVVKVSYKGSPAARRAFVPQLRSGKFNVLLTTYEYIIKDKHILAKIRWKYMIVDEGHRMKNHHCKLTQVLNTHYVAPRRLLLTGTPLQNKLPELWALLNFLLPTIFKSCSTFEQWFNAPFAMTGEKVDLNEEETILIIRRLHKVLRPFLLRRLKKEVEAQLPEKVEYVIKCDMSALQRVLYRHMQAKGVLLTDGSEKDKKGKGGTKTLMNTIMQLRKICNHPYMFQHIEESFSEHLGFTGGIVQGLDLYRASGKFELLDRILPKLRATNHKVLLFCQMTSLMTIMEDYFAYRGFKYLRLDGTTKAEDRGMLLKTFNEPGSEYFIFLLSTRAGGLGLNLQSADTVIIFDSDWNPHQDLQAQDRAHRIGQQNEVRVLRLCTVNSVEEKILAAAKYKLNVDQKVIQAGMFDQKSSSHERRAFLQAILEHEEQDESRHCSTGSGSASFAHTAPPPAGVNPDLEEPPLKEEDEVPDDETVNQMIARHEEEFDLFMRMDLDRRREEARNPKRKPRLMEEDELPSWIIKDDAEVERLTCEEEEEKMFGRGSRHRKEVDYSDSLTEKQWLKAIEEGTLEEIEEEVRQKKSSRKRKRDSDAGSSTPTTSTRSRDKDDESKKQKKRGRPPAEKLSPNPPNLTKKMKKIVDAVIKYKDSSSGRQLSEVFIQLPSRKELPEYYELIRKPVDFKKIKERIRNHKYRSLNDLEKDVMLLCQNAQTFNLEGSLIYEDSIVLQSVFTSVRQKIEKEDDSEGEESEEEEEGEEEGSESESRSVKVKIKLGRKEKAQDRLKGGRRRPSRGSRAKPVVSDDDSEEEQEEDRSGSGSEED

Row | Structure (SMILES) | SMARCA2 MSD A549 degradation 24 h: Average Dmax % (SMARCA2 [1]) | DC50 (SMARCA2 [1]) [nM] | SMARCA4 MSD MV411 degradation 24 h: average Dmax % (SMARCA4) | DC50 (SMARCA4) [nM] | SMARCA2 MSD MV411 degradation 24 h: average Dmax % (SMARCA2 [2]) | DC50 (SMARCA2 [2]) [nM] | Selectivity in MV411 (SMARCA2 [2]) | Dmax (SMARCA2 [1]) [%] | Dmax (SMARCA4) [%] | Dmax (SMARCA2 [2]) [%]
1 | Cc1ncsc1-c1ccc(CNC(=O)[C@@H]2C[C@@H](O)CN2C(=O)[C@@H](NC(=O)N2CC3(CCC(N4CCC(c5cnc(N6CCc7[nH]c8nnc(-c9ccccc9O)cc8c7[C@@H]6C)nc5)CC4)CC3)C2)C(C)(C)C)cc1 (single isomer, unassigned) [I-63] |  | 10 to 50 |  | > 100 |  | 10 to 100 | C (C (10-100 fold)) | > 90 | 50 to 70 | 70 to 90
2 | Cc1ncsc1-c1ccc(CNC(=O)[C@@H]2C[C@@H](O)CN2C(=O)[C@@H](NC(=O)C2(F)CC2)C(C)(C)C)c(OCCN2CCC(c3cnc(N4CCN5c6cc(-c7ccccc7O)nnc6NC[C@H]5C4)nc3)CC2)c1 (single isomer, unassigned) [I-32] |  | < 10 |  | 1 to 10 |  | < 1 | C (C (10-100 fold)) | > 90 | > 90 | > 90
3 | Cc1ncsc1-c1ccc(CNC(=O)[C@@H]2C[C@@H](O)CN2C(=O)[C@@H](NC(=O)C2(F)CC2)C(C)(C)C)c(OCCCCN2CCC(c3cnc(N4CCN5c6cc(-c7ccccc7O)nnc6NC[C@H]5C4)nc3)CC2)c1 (single isomer, unassigned) [I-49] |  | 10 to 50 |  | 1 to 10 |  | < 1 | C (C (10-100 fold)) | > 90 | > 90 | > 90
4 | C#Cc1ccc([C@H](C)NC(=O)[C@@H]2C[C@@H](O)CN2C(=O)[C@@H](NC(=O)N2CC3(CC(N4CCC(c5cnc(N6CCc7[nH]c8nnc(-c9ccccc9O)cc8c7[C@H]6C)cn5)CC4)C3)C2)C(C)(C)C)cc1 [I-250] |  | 10 to 50 |  | > 100 |  | 10 to 100 | C (C (10-100 fold)) | > 90 | 70 to 90 | > 90
5 | Cc1ncsc1-c1ccc(CNC(=O)[C@@H]2C[C@@H](O)CN2C(=O)C(c2cc(OCCN3CCC(N4CCC(c5cnc(N6CCc7[nH]c8nnc(-c9ccccc9O)cc8c7[C@@H]6C)nc5)CC4)CC3)no2)C(C)C)cc1 (single isomer, unassigned) [I-41] |  | 50 to 100 |  | 10 to 100 |  | < 1 | D (D (<10 fold)) | 70 to 90 | > 90 | > 90
6 | C#Cc1cc(Cl)c(CNC(=O)[C@@H]2C[C@@H](O)CN2C(=O)[C@@H](NC(=O)[C@H]2CC3(C2)C[C@H](N2CCC(N4CCC(N5CCN6c7cc(-c8ccccc8O)nnc7NC[C@H]6C5)CC4)CC2)C3)C(C)(C)C)c(OC)c1 (single isomer, unassigned) [I-328] |  | > 100 |  | > 100 |  | > 100 | D (D (<10 fold)) | < 50 | < 50 | < 50
7 | Cc1ncsc1-c1ccc(CNC(=O)[C@@H]2C[C@@H](O)CN2C(=O)C(c2cc(OCCN3CCC(N4CCC(c5cnc(N6CCc7[nH]c8nnc(-c9ccccc9O)cc8c7[C@H]6C)nc5)CC4)CC3)no2)C(C)C)cc1 (stereo partly drawn) [I-36] |  | 10 to 50 |  | 1 to 10 |  | 1 to 10 | D (D (<10 fold)) | > 90 | > 90 | > 90

Next, values leading:

Row | SMARCA2 MSD A549 degradation 24 h: Average Dmax % (SMARCA2 [1]) | DC50 (SMARCA2 [1]) [nM] | SMARCA4 MSD MV411 degradation 24 h: average Dmax % (SMARCA4) | DC50 (SMARCA4) [nM] | SMARCA2 MSD MV411 degradation 24 h: average Dmax % (SMARCA2 [2]) | DC50 (SMARCA2 [2]) [nM] | Selectivity in MV411 (SMARCA2 [2]) | Dmax (SMARCA2 [1]) [%] | Dmax (SMARCA4) [%] | Dmax (SMARCA2 [2]) [%] | Structure (SMILES)
8 | A (A (>90% degradation)) | 10 to 50 | C (C (50-70% degradation)) | > 100 | B (B (>70-90% degradation)) | 1 to 10 | C (C (10-100 fold)) |  |  |  | C#Cc1ccc(CNC(=O)[C@@H]2C[C@@H](O)CN2C(=O)[C@@H](NC(=O)[C@H]2CCC3(CC2)C[C@H](N2CCN(c4cnc(N5CCN6c7cc(-c8ccccc8O)nnc7NC[C@H]6C5)nc4)CC2)C3)C(C)(C)C)cc1 (single isomer, unassigned) [I-170]
9 |  | > 100 |  | > 100 |  | 1 to 10 | A (A (>500 fold)) | > 90 | < 50 | 70 to 90 | C#Cc1ccc(CNC(=O)[C@@H]2C[C@@H](O)CN2C(=O)[C@@H](NC(=O)C2CCC3(CC2)CC(N2CCC(N4CCC(C(=O)N5CCN6c7cc(-c8ccccc8O)nnc7NC[C@H]6C5)CC4)CC2)C3)C(C)(C)C)cc1 (stereo partly drawn) [I-89]
10 |  | 10 to 50 |  | > 100 |  | 1 to 10 | C (C (10-100 fold)) | > 90 | 50 to 70 | > 90 | C#Cc1ccc(CNC(=O)[C@@H]2C[C@@H](O)CN2C(=O)[C@@H](NC(=O)N2CCN(C3CC4(CCN(c5cnc(N6CCN7c8cc(-c9ccccc9O)nnc8NC[C@H]7C6)nc5)CC4)C3)CC2)C(C)(C)C)cc1 [I-284]
11 |  | 10 to 50 |  | > 100 |  | 1 to 10 | C (C (10-100 fold)) | > 90 | 50 to 70 | 70 to 90 | C#Cc1ccc([C@H](C)NC(=O)[C@@H]2C[C@@H](O)CN2C(=O)[C@@H](NC(=O)[C@H]2CCC3(CC2)C[C@H](N2CCN(c4cnc(N5CCN6c7cc(-c8ccccc8O)nnc7NC[C@H]6C5)nc4)CC2)C3)C(C)(C)C)cc1 (single isomer, unassigned) [I-233]
12 | A (A (>90% degradation)) | 50 to 100 | C (C (50-70% degradation)) | > 100 | B (B (>70-90% degradation)) | 10 to 100 | C (C (10-100 fold)) |  |  |  | C#Cc1ccc([C@H](C)NC(=O)[C@@H]2C[C@@H](O)CN2C(=O)[C@@H](NC(=O)[C@H]2CCC3(CC2)C[C@H](N2CCN(c4cnc(N5CCN6c7cc(-c8ccccc8O)nnc7NC[C@H]6C5)nc4)CC2)C3)C(C)(C)C)cc1 (single isomer, unassigned) [I-234]
13 |  | 10 to 50 |  | > 100 |  | 1 to 10 | C (C (10-100 fold)) | > 90 | 70 to 90 | 70 to 90 | C#Cc1ccc([C@H](C)NC(=O)[C@@H]2C[C@@H](O)CN2C(=O)[C@@H](NC(=O)[C@H]2CC3(C2)C[C@H](c2cnc(N4CCC(N5CCN6c7cc(-c8ccccc8O)nnc7NC[C@H]6C5)CC4)nc2)C3)C(C)(C)C)cc1 (stereo partly drawn) [I-362]
14 |  | > 100 |  | 10 to 100 |  | 1 to 10 | C (C (10-100 fold)) |  |  |  | C#Cc1ccc(CNC(=O)[C@@H]2C[C@@H](O)CN2C(=O)[C@@H](NC(=O)[C@H]2CC3(C2)C[C@H](N2CCN(C(=O)CCN4CCN5c6cc(-c7ccccc7O)nnc6NC[C@H]5C4)CC2)C3)C(C)(C)C)cc1 (stereo partly drawn) [I-275]
15 | A (A (>90% degradation)) | 10 to 50 | B (B (>70-90% degradation)) | 10 to 100 | A (A (>90% degradation)) | 1 to 10 | C (C (10-100 fold)) |  |  |  | Cc1ncsc1-c1ccc(CNC(=O)[C@@H]2C[C@@H](O)CN2C(=O)[C@@H](NC(=O)[C@H]2CC3(C2)C[C@H](N2CCN(c4cnc(N5CCN6c7cc(-c8ccccc8O)nnc7NC[C@H]6C5)nc4)CC2)C3)C(C)(C)C)cc1 (stereo partly drawn) [I-19]
16 | A (A (>90% degradation)) | > 100 | D (D (<50% degradation)) | > 100 | B (B (>70-90% degradation)) | 10 to 100 | C (C (10-100 fold)) |  |  |  | C#Cc1ccc(CNC(=O)[C@@H]2C[C@@H](O)CN2C(=O)[C@@H](NC(=O)[C@H]2CCC3(CC2)C[C@H](N2CCC(N4CC5(CC(N6CCN7c8cc(-c9ccccc9O)nnc8NC[C@H]7C6)C5)C4)CC2)C3)C(C)(C)C)c(Cl)c1 (single isomer, unassigned) [I-238]
17 |  | > 100 |  | > 100 |  | > 100 | C (C (10-100 fold)) | 50 to 70 | < 50 | < 50 | C#Cc1ccc(CNC(=O)[C@@H]2C[C@@H](O)CN2C(=O)[C@@H](NC(=O)N2CCO[C@H](CN3CCC(N4CCC(N5CCN6c7cc(-c8ccccc8O)nnc7NC[C@H]6C5)CC4)CC3)C2)C(C)(C)C)cc1 [I-219]
18 |  | > 100 |  | 10 to 100 |  | 1 to 10 | D (D (<10 fold)) |  |  |  | C#Cc1ccc(CNC(=O)[C@@H]2C[C@@H](O)CN2C(=O)[C@@H](NC(=O)[C@H]2CC3(C2)C[C@H](N2CCN(C(=O)CN4CCN5c6cc(-c7ccccc7O)nnc6NC[C@H]5C4)CC2)C3)C(C)(C)C)cc1 (stereo partly drawn) [I-240]
